Reference: patent publication US20070207537A1, “Bioreactor” (priority 2004, published 2007)

Tested on: Human mesnchymal stem cells
Assay: Alamar Blue toxicity assay in perfused microbioreactor culture
Assay type: cell-based
Conditions: 250 ng/ml, read at day 3 and day 7, FIG. 3
Procedure: Human mesnchymal stem cells were suspended in the α Modified Eagle's Medium (MEM) at the cell density of 10^4/ml. A 50 μl of cell suspension was introduced to each of the microbioreactors and kept at 37° C. After 4 h, the cell was seen to attach to the surface of the microbioreactor under microscope. During culture, αMEM supplemented with 15% FBS, 2% antibiotics/antimycotics and with different concentrations of tested drugs was used. The chemicals used were Trimethoprim and Pyrimethamine, which are known to be toxic to cells. The concentrations of the drug were 100 ng/ml and 250 ng/ml. The flow rate was 0.025 ml/h. Alamar Blue was used to do toxicity assay, which simply indicates the cell metabolity.
The samples from 3 days of culture with drug, 7 days of culture with drug and 3 days of culture without drug and further 4 days culture with drug were incubated with culture medium supplemented with Alamar Blue at day 3 and day 7, respectively for 4 h. Then 100 μl of culture medium was transferred to 96-well plate to read using microplate reader at the excitation wavelength of 530 nm and emission wavelength of 590 nm. Toxicity was shown as the ratio of reading from untreated with drug and from treated with drug, see FIG. 3. The toxicity was increased with culture time with drug. No significant different in toxicity between the two concentrations of drug in the test.

Structure (SMILES): CCc1nc(N)nc(N)c1-c1ccc(Cl)cc1 [Pyrimethamine]
- Toxicity (ratio of reading from untreated with drug and from treated with drug): dramatic increase in toxicity
